Measurements: patent US20040067531A1, “Methods of modulating protein tyrosine kinase function with substituted indolinone compounds” (SUGEN, INC., priority 1997, published 2004)

Legend:
FLK-1 receptor = target: T1, FLK-1 receptor (Mus musculus, UniProt P35918); experiment: ELISA assay measuring the kinase activity of the FLK-1 receptor in cells engineered to express FLK-1; format: cell-based; settings: NIH3T3 C7#3 FLK-1 expressing cells, VEGF stimulation, phosphotyrosine ELISA
T1 construct: expressed in transfected cells; host or cells: NIH3T3 C7#3
T1 sequence (P35918 20-1345): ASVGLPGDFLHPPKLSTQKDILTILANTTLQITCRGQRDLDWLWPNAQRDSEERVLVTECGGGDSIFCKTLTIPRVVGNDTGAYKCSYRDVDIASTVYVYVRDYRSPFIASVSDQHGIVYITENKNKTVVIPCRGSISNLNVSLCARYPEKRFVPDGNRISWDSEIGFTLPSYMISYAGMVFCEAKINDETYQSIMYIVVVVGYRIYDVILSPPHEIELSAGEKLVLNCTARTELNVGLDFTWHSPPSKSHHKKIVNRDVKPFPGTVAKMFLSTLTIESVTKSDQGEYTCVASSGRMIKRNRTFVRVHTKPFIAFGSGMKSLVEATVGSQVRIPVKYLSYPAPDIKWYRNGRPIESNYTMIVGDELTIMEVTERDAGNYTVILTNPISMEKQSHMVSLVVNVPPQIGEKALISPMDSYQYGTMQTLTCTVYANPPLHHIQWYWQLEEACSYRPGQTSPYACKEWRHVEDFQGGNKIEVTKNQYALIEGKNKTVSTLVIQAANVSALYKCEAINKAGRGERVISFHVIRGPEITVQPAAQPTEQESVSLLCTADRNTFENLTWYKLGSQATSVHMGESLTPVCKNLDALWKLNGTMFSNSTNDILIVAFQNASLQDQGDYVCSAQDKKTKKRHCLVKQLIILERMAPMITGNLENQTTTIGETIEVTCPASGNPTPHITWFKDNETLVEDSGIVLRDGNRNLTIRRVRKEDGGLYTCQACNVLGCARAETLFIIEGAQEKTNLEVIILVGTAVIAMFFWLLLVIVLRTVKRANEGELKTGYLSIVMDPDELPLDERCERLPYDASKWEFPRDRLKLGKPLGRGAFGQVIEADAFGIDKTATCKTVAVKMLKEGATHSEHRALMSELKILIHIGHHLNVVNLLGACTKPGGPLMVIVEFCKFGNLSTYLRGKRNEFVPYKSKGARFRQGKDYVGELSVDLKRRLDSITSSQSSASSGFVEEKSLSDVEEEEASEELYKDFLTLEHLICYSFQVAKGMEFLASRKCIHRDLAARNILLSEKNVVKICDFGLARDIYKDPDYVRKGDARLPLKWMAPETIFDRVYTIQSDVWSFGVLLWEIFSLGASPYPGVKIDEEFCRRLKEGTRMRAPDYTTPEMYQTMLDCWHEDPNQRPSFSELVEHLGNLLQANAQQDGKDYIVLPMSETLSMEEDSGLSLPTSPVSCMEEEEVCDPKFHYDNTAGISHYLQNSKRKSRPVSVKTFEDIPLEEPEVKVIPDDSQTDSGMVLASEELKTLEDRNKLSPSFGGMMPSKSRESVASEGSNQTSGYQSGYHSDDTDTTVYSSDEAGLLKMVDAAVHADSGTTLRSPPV
Experimental: An ELISA assay was conducted to measure the kinase activity of the FLK-1 receptor and more specifically, the inhibition or activation of TK activity on the FLK-1 receptor. Specifically, the following assay was conducted to measure kinase activity of the FLK-1 receptor in cells genetically engineered to express FLK-1.
(11) NIH3T3 C7#3 Cells (FLK-1 expressing cells);
The following protocol was used for conducting the assay:
1. Coat Corning 96-well elisa plates with 1.0 μg per well Cappel Anti-rabbit IgG antibody in 0.1 M Na2CO3 pH 9.6. Bring final volume to 150 μL per well. Coat plates overnight at 4° C. Plates can be kept up to two weeks when stored at 4° C.
2. Grow cells in Growth media (DMEM, supplemental with 2.0 mM L-Glutamine, 10% FBS) in suitable culture dishes until confluent at 37° C., 5% CO2.
3. Harvest cells by trypsinization and seed in Corning 25850 polystyrene 96-well roundbottom cell plates, 25.000 cells/well in 200 μL of growth media.
4. Grow cells at least one day at 37° C., 5% CO2.
5. Wash cells-with D-PBS 1×.
6. Add 200 μL/well of starvation media (DMEM, 2.0 mM 1-Glutamine, 0.1% FBS). Incubate overnight at 37° C., 5% CO2.
7. Dilute Compounds 1:20 in polypropylene 96 well plates using starvation media. Dilute dimethylsulfoxide 1:20 for use in control wells.
8. Remove starvation media from 96 well cell culture plates and add 162 μL of fresh starvation media to each well.
9. Add 18 μL of 1:20 diluted Compound dilution (from step 7) to each well plus the 1:20 dimethylsulfoxide dilution to the control wells (+/− VEGF), for a final dilution of 1:200 after cell stimulation. Final dimethylsulfoxide is 0.5%. Incubate the plate at 37° C., 5% CO2 for two hours.
10. Remove unbound antibody from ELISA plates by inverting plate to remove liquid. Wash 3 times with TBSW+0.5% ethanolamine, pH 7.0. Pat the plate on a paper towel to remove excess liquid and bubbles.
11. Block plates with TBSW+0.5% Ethanolamine, pH 7.0, 150 μL per well. Incubate plate thirty minutes while shaking on a microliter plate shaker.
12. Wash plate 3 times as described in step 10.
13. […] Bring final volume to 150 μL/well with TBSW+0.5% ethanolamine pH 7.0. Incubate plate for thirty minutes while shaking.
14. Add 180 μL starvation medium to the cells and stimulate cells with 20 μL/well 10.0 mM sodium ortho vanadate and 500 ng/mL VEGF (resulting in a final concentration of 1.0 mM sodium ortho vanadate and 50 ng/mL VEGF per well) for eight minutes at 37° C., 5% CO2. Negative control wells receive only starvation medium.
15. After eight minutes, media should be removed from the cells and washed one time with 200 μL/well PBS.
16. Lyse cells in 150 μL/well HNTG while shaking at room temperature for five minutes. HNTG formulation includes sodium ortho vanadate, sodium pyro phosphate and EDTA.
17. Wash ELISA plate three times as described in step 10.
18. Transfer cell lysates from the cell plate to ELISA plate and incubate while shaking for two hours. To transfer cell lysate pipette up and down while scrapping the wells.
19. Wash plate three times as described in step 10.
20. Incubate ELISA plate with 0.02 μg/well UB40 in TBSW+05% ethanolamine. Bring final volume to 150 μL/well. Incubate while shaking for 30 minutes.
21. Wash plate three times as described in step 10.
22. Incubate ELISA plate with 1:10,000 diluted EIA grade goat anti-mouse IgG conjugated horseradish peroxidase in TBSW+0.5% ethanolamine, pH 7.0. Bring final volume to 150 μL/well. Incubate while shaking for thirty minutes.
23. Wash plate as described in step 10.
24. Add 100 μL of ABTS/H2O2 solution to well. Incubate ten minutes while shaking.
25. Add 100 μL of 0.2 M HCl for 0.1 M HCl final to stop the color development reaction. Shake 1 minute at room temperature. Remove bubbles with slow stream of air and read the ELISA plate in an ELISA plate reader at 410 nm.
(§1) The IC50 values were measured for several of the compounds of the invention.

[1] = target: Myc-GyrB-FGFR fusion protein (Homo sapiens, UniProt P11362); experiment: ELISA assay measuring the kinase activity of the FGF receptor (Myc-GyrB-FGFR from COS/FGFR cell lysate); format: biochemical; settings: 7 μM ATP
Chain of Myc-GyrB-FGFR fusion protein (P11362 398-822): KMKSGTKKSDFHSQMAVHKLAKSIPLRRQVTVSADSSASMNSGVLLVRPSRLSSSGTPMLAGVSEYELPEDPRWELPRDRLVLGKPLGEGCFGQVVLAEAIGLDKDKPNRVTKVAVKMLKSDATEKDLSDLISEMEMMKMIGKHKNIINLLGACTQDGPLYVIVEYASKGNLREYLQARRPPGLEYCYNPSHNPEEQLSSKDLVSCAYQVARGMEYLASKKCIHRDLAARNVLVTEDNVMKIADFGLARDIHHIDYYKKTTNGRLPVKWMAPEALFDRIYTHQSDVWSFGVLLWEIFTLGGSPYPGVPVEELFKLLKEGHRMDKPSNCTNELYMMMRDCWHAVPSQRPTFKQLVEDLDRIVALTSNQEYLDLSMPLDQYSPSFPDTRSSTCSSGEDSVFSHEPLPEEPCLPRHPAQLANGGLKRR
Experimental: The following protocol describes the reagents and procedures used to analyze protein-tyrosine kinase activity of the Myc-GyrB-FGFR fusion protein.
Coat Corning 96 well ELISA plates with 1.0 μg/well of Rabbit αGyrB antibody in PBS for a total well volume of 100 μL. Store overnight at 4° C.
Remove unbound Rabbit antibody by inverting plate to remove liquid. Pat plate on a paper towel to remove excess liquid and bubbles
Add 100 μL of Blocking Buffer (TBB) to each well. Incubate while shaking on a microliter plate shaker at room temperature for 30 min.
Wash 4× with TBST. Pat plate on a paper towel to remove excess liquid and bubbles.
Add 15 μg COS/FGFR cell lysate Myc-GyrB-FGFR sources per well in HNTG for a final volume of 100 μL per well. Incubate while shaking on a micro-liter plate shaker at room temperature for 2 hours.
Wash 4× with TBST as described in step 4.
Add 80 μL of 1× kinase buffer per well.
Dilute compunds/extracts 1:10 (or as stated otherwise) in 1× kinase buffer +1% DMSO in a polypropylene 96 well plate.
At this point diluted Compounds/Extracts are added to the ELISA plate. […]

EGFR protein = target: T2, EGFR protein (Homo sapiens, UniProt P00533); experiment: ELISA assay measuring the kinase activity of the EGF receptor (EGFR captured from A431 cell lysate); format: biochemical
T2 construct: A431 cell lysate; endogenous in cells; host or cells: A431
T2 sequence (P00533 25-1210): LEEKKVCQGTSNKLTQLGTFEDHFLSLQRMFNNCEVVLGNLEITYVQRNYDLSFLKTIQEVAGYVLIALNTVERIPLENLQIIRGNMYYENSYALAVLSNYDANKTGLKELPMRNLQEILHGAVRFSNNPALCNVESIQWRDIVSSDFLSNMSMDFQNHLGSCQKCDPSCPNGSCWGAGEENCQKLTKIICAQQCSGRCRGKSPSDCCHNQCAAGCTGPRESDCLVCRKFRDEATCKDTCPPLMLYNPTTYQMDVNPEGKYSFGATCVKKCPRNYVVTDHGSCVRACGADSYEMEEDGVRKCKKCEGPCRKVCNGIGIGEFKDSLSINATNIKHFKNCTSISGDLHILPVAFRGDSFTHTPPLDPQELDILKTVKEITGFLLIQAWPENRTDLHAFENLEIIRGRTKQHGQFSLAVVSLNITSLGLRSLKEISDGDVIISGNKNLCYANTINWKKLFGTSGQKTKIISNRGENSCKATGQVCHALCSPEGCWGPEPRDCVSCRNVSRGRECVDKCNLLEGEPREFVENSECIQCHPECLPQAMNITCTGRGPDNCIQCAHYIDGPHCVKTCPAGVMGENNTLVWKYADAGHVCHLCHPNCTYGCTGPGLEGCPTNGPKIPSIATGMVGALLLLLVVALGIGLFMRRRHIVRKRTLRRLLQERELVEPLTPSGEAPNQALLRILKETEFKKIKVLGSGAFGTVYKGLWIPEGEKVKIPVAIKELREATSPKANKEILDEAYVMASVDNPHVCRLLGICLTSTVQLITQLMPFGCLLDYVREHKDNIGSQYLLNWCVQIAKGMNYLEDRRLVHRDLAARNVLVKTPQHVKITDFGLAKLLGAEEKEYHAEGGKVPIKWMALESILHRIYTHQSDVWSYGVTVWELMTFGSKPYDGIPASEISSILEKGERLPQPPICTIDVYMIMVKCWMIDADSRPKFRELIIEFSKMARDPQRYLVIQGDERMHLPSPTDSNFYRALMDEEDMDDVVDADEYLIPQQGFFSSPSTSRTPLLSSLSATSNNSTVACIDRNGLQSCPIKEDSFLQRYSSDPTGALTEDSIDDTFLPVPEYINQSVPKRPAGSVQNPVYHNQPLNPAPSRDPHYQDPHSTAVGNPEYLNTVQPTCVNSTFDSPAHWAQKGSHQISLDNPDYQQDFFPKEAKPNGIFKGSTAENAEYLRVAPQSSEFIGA
Experimental: The following protocol describes the reagents and procedures used to analyze protein tyrosine kinase activity on the EGFR protein.
All of the following steps are conducted at room temperature unless it is specifically indicated. All ELISA plate washing is by rinsing 4× with TBST.
1. Coat Corning 96 well ELISA plates with 0.5 μg/well of SUMO1 in a volume of 100 μL PBS. Store overnight at 4° C.
2. Remove unbound SUMO1 by inverting plate to remove liquid. Wash plates with distilled water. Pat plate on a paper towel to remove excess liquid and bubbles
3. Add 150 μL of Blocking Buffer to each well. Incubate while shaking on a microliter plate shaker at room temperature for 30 min.
4. Wash 3× with deionized water, then once with TBST. Pat plate on a paper towel to remove excess liquid and bubbles.
5. Dilute lysate in PBS (7 μg of lysate/100 μL of PBS).
6. Add 100 μL of diluted lysate to each well. Shake at room temperature for 60 min.
7. Wash as described in step 4.
8. Add 120 μL TBS to ELISA plate containing captured EGFR.
9. Dilute drugs/extracts 1:10 (unless specified otherwise) in TBS in 96-well polypropylene plates.
10. Add 13.5 μL diluted drugs/extracts to ELISA plate.
11. Incubate for 30 minutes while shaking at room temperture.
12. […] Incubate while shaking on a micro-liter plate shaker at room temperature for 5 min.
13. Stop Kinase reaction with the addition of 16.5 μL of 200 mM EDTA pH 8.0 to all wells.
14. Wash 4× with deionized water and twice with TBST.
15. Add 100 μL per well of anti-phosphotyrosine (1:3000 dilution in TBST). Incubate while shaking on a micro-liter plate shaker 30-45 minutes at room temperature while shaking.
16. Wash as described in step 4.
17. Add 100 μL per well of biosource Goat anti-rabbit IgG peroxidase conjugate (1:2000 dilution in TBST). Incubate 30 min. at room temerature while shaking.
18. Wash as described in step 4.
19. Add 100 μL of ABTS/H2O2 solution to each well.
20. Incubate 5 to 15 minutes while shaking. Remove any bubbles.
21. If necessary stop reaction with the addition of 10 μL of 0.2 M HCl/well.
22. Read assay on Dynatech MR7000 ELISA Plate Reader.
as §1

Which IC50 (FLK-1 receptor) does the source give for O=C(O)CCc1c(C=C2C(=O)Nc3ccccc32)[nH]c2c1CCCC2 [IN-001, 3-[2-(2-Oxo-1,2-dihydro-indol-3-ylidenemethyl)-4,5,6,7-tetrahydro-1H-indol-3-yl]-propionic acid] here?
Its IC50 is 62 nM.

And the melting point?
Its melting point is 263 to 265 °C.

For O=C(O)CCc1c(C=C2C(=O)Nc3ccc(Cl)cc32)[nH]c2c1CCCC2 [IN-002, 3-[2-(5-Chloro-2-oxo-1,2-dihydro-indol-3-ylidenemethyl)-4,5.6,7-tetrahydro-1H-indol-3-yl]-propionic acid], which IC50 (FLK-1 receptor) is on record?
The IC50 was 22 nM.

What about the IC50 [1] of the same compound?
Its IC50 is 370 nM.

With O=C(O)CCc1c(C=C2C(=O)Nc3ccc(Br)cc32)[nH]c2c1CCCC2 [IN-003, 3-[2-(5-Bromo-2-oxo-1,2-dihydro-indol-3-ylidenemethyl)-4,5,6,7-tetrahydro-1H-indol-3-yl]-propionic acid] as the compound, how does the IC50 (FLK-1 receptor) read?
Its IC50 is 29 nM.

With Cc1cccc2c1C(=Cc1[nH]c3c(c1CCC(=O)O)CCCC3)C(=O)N2 [IN-004, 3-[2-(4-Methyl-2-oxo-1,2-dihydro-indol-3-ylidenemethyl)-4,5,6,7-tetrahydro-1H-indol-3-yl]-propionic acid] as the compound, how does the IC50 (FLK-1 receptor) read?
The IC50 was 23 nM.

With Cc1ccc2c(c1)C(=Cc1[nH]c3c(c1CCC(=O)O)CCCC3)C(=O)N2 [IN-005, 3-[2-(5-Methyl-2-oxo-1,2-dihydro-indol-3-ylidenemethyl)-4,5,6,7-tetrahydro-1H-indol-3-yl]-propionic acid] as the compound, how does the IC50 (FLK-1 receptor) read?
The IC50 was 63 nM.

For COc1ccc2c(c1)NC(=O)C2=Cc1[nH]c2c(c1CCC(=O)O)CCCC2 [IN-007, 3-[2-(6-Methoxy-2-oxo-1,2-dihydro-indol-3-ylidenemethyl)-4,5,6,7-tetrahydro-1H-indol-3-yl]-propionic acid], which IC50 (FLK-1 receptor) is on record?
Its IC50 is 810 nM.

For CN(C)C(=O)CCc1c(C=C2C(=O)Nc3ccccc32)[nH]c2c1CCCC2 [IN-008, N,N-Dimethyl-3-[2-(2-oxo-1,2-dihydro-indol-3-ylidenemethyl)-4,5,6,7-tetrahydro-1H-indol-3-yl]-propionamide], which IC50 (FLK-1 receptor) is on record?
The IC50 was 500 nM.

For CN(C)CCCc1c(C=C2C(=O)Nc3ccccc32)[nH]c2c1CCCC2 [IN-009, 3-[3-(3-Dimethylamino-propyl)-4,5,6,7-tetrahydro-1H-indol-2-ylmethylene]-1,3-dihydro-indol-2-one], which IC50 (FLK-1 receptor) is on record?
Its IC50 is 7400 nM.

Which IC50 (FLK-1 receptor) does the source give for NC(=O)CCc1c(C=C2C(=O)Nc3ccccc32)[nH]c2c1CCCC2 [IN-010, 3-[2-(2-Oxo-1,2-dihydro-indol-3-ylidenemethyl)-4,5,6,7-tetrahydro-1H-indol-3-yl]-propionamide] here?
Its IC50 is 130 nM.

With O=C1Nc2ccccc2C1=Cc1[nH]c2c(c1CCC(=O)N1CCOCC1)CCCC2 [IN-011, 3-[3-(3-Morpholin-4-yl-3-oxo-propyl)-4,5 6,7-tetrahydro-1H-indol-2-ylmethylene]-1,3-dihydro-indol-2-one] as the compound, how does the IC50 (FLK-1 receptor) read?
Its IC50 is less than 780 nM.

For CNC(=O)CCc1c(C=C2C(=O)Nc3ccccc32)[nH]c2c1CCCC2 [IN-012, N-Methyl-3-[2-(2-oxo-1,2-dihydro-indol-3-ylidenemethyl)-4,5,6,7-tetrahydro-1H-indol-3-yl]-propionamide], which IC50 (FLK-1 receptor) is on record?
Its IC50 is less than 780 nM.

For O=C(CCc1c(C=C2C(=O)Nc3ccccc32)[nH]c2c1CCCC2)NCCN1CCOCC1 [IN-013, N-(2-Morpholin-4-yl-ethyl)-3-[2-(2-oxo-1,2-dihydro-indol-3-ylidenemethyl)-4,5,6,7-tetrahydro-1H-indol-3-yl]-propionamide], which IC50 (FLK-1 receptor) is on record?
Its IC50 is 630 nM.

And the melting point?
Its melting point is 256 to 258 °C.

For Cc1c[nH]c(C=C2C(=O)Nc3ccccc32)c1CCC(=O)O [IN-026, 3-[4-Methyl-2-(2-oxo-1,2-dihydro-indol-3-ylidenemethyl)-1H-pyrrol-3-yl]-propionic acid], which IC50 (FLK-1 receptor) is on record?
The IC50 was 200 nM.

And the IC50 (EGFR protein)?
The IC50 was greater than 100 µM.

Which IC50 (FLK-1 receptor) does the source give for Cc1c[nH]c(C=C2C(=O)Nc3ccc(Cl)cc32)c1CCC(=O)O [IN-027, 3-[2-(5-Chloro-2-oxo-1,2-dihydro-indol-3-ylidenemethyl)-4-methyl-1H-pyrrol-3-yl]-propionic acid] here?
The IC50 was 2900 nM.

And the IC50 (EGFR protein)?
The IC50 was greater than 100 µM.

What does the source list for COc1ccc2c(c1)NC(=O)C2=Cc1[nH]cc(C)c1CCC(=O)O [IN-028, 3-[2-(6-Methoxy-2-oxo-1,2-dihydro-indol-3-ylidenemethyl)-4-methyl-1H-pyrrol-3-yl]-propionic acid]?
IC50 (FLK-1 receptor): 1500 nM; IC50 (EGFR protein): > 100 µM

What does the source list for Cc1c[nH]c(C=C2C(=O)Nc3cccc(C)c32)c1CCC(=O)O [IN-029, 3-[2-(4-Methyl-2-oxo-1,2-dihydro-indol-3-ylidenemethyl)-4-methyl-1H-pyrrol-3-yl]-propionic acid]?
IC50 (FLK-1 receptor): 200 nM; IC50 (EGFR protein): > 100 µM

For Cc1c[nH]c(C=C2C(=O)Nc3cc(Cl)ccc32)c1CCC(=O)O [IN-030, 3-[2-(6-Chloro-2-oxo-1,2-dihydro-indol-3-ylidenemethyl)-4-methyl-1H-pyrrol-3-yl]-propionic acid], which IC50 (FLK-1 receptor) is on record?
Its IC50 is 190 nM.

And the IC50 (EGFR protein)?
The IC50 was 98.1 µM.

For Cc1c[nH]c(C=C2C(=O)Nc3ccc(Br)cc32)c1CCC(=O)O [IN-031, 3-[2-(5-Bromo-2-oxo-1,2-dihydro-indol-3-ylidenemethyl)-4-methyl-1H-pyrrol-3-yl]-propionic acid], which IC50 (FLK-1 receptor) is on record?
The IC50 was 350 nM.

What about the IC50 (EGFR protein) of the same compound?
The IC50 was greater than 100 µM.
